Experiment: mn = molality of the nth substance listed, in mol/kg
Conditions: 101 kPa, Liquid

CC1=CC(=O)c2ccccc2C1=O [2-methyl-1,4-naphthalenedione] + Cc1ccc(C)cc1
Conditions	mass density [kg/m3]	viscosity [mPa·s]
303.15 K, m1 = 0.0454	854	0.5859
303.15 K, m1 = 0.0902	856	0.5904
303.15 K, m1 = 0.1361	858.1	0.5958
303.15 K, m1 = 0.1815	860.1	0.6048
303.15 K, m1 = 0.2267	862.1	0.6092
303.15 K, m1 = 0.2724	864.1	0.6161
308.15 K, m1 = 0.0454	849.7	0.5528
308.15 K, m1 = 0.0902	851.7	0.5581
308.15 K, m1 = 0.1361	853.8	0.5631
308.15 K, m1 = 0.1815	855.8	0.5716
308.15 K, m1 = 0.2267	857.8	0.5748
308.15 K, m1 = 0.2724	859.8	0.582
313.15 K, m1 = 0.0454	845.2	0.5222
313.15 K, m1 = 0.0902	847.2	0.5274
313.15 K, m1 = 0.1361	849.3	0.5349
313.15 K, m1 = 0.1815	851.3	0.5396
313.15 K, m1 = 0.2267	853.3	0.543
313.15 K, m1 = 0.2724	855.3	0.5477
318.15 K, m1 = 0.0454	840.7	0.4999
318.15 K, m1 = 0.0902	842.7	0.5047
318.15 K, m1 = 0.1361	844.8	0.5097
318.15 K, m1 = 0.1815	846.8	0.5152
318.15 K, m1 = 0.2267	848.8	0.5183
318.15 K, m1 = 0.2724	850.8	0.5242
323.15 K, m1 = 0.0454	836.5	0.4686
323.15 K, m1 = 0.0902	838.5	0.4737
323.15 K, m1 = 0.1361	840.6	0.477
323.15 K, m1 = 0.1815	842.6	0.4824
323.15 K, m1 = 0.2267	844.6	0.4864
323.15 K, m1 = 0.2724	846.6	0.4907
328.15 K, m1 = 0.0454	831.9	0.4467
328.15 K, m1 = 0.0902	833.9	0.4509
328.15 K, m1 = 0.1361	836	0.456
328.15 K, m1 = 0.1815	838	0.4615
328.15 K, m1 = 0.2267	840	0.4633
328.15 K, m1 = 0.2724	842	0.4698
333.15 K, m1 = 0.0454	827.6	0.4225
333.15 K, m1 = 0.0902	829.6	0.4258
333.15 K, m1 = 0.1361	831.7	0.4309
333.15 K, m1 = 0.1815	833.7	0.4364
333.15 K, m1 = 0.2267	835.7	0.4384
333.15 K, m1 = 0.2724	837.7	0.4429

CCc1ccccc1 [ethylbenzene] + CC1=CC(=O)c2ccccc2C1=O
m2 = 0
Conditions	mass density [kg/m3]	viscosity [mPa·s]
303.15 K	858	0.5986
308.15 K	853.5	0.5691
313.15 K	849.5	0.5372
318.15 K	844.7	0.506
323.15 K	840.5	0.4805
328.15 K	835.9	0.4566
333.15 K	831.6	0.4371

CC1=CC(=O)c2ccccc2C1=O [2-methyl-1,4-naphthalenedione] + Cc1ccccc1
Conditions	mass density [kg/m3]	viscosity [mPa·s]
303.15 K, m1 = 0.0454	859.6	0.5365
303.15 K, m1 = 0.0909	861.7	0.544
303.15 K, m1 = 0.1365	863.8	0.5487
303.15 K, m1 = 0.1817	865.9	0.5572
303.15 K, m1 = 0.227	868	0.5612
303.15 K, m1 = 0.2728	870.1	0.5683
308.15 K, m1 = 0.0454	855	0.5088
308.15 K, m1 = 0.0909	857.1	0.516
308.15 K, m1 = 0.1365	859.2	0.5185
308.15 K, m1 = 0.1817	861.3	0.5246
308.15 K, m1 = 0.227	863.4	0.5277
308.15 K, m1 = 0.2728	865.5	0.5346
313.15 K, m1 = 0.0454	850	0.4814
313.15 K, m1 = 0.0909	852.1	0.488
313.15 K, m1 = 0.1365	854.2	0.4902
313.15 K, m1 = 0.1817	856.3	0.4955
313.15 K, m1 = 0.227	858.4	0.4987
313.15 K, m1 = 0.2728	860.5	0.5051
318.15 K, m1 = 0.0454	845.6	0.4535
318.15 K, m1 = 0.0909	847.7	0.4582
318.15 K, m1 = 0.1365	849.8	0.463
318.15 K, m1 = 0.1817	851.9	0.4677
318.15 K, m1 = 0.227	854	0.4753
318.15 K, m1 = 0.2728	856.1	0.4775
323.15 K, m1 = 0.0454	840.8	0.4321
323.15 K, m1 = 0.0909	842.9	0.4362
323.15 K, m1 = 0.1365	845	0.439
323.15 K, m1 = 0.1817	847.1	0.443
323.15 K, m1 = 0.227	849.2	0.4459
323.15 K, m1 = 0.2728	851.3	0.4515
328.15 K, m1 = 0.0454	836.1	0.413
328.15 K, m1 = 0.0909	838.2	0.4147
328.15 K, m1 = 0.1365	840.3	0.4176
328.15 K, m1 = 0.1817	842.4	0.4208
328.15 K, m1 = 0.227	844.5	0.4242
328.15 K, m1 = 0.2728	846.6	0.4303
333.15 K, m1 = 0.0454	831.2	0.3872
333.15 K, m1 = 0.0909	833.3	0.3909
333.15 K, m1 = 0.1365	835.4	0.3927
333.15 K, m1 = 0.1817	837.5	0.398
333.15 K, m1 = 0.227	839.6	0.4065
333.15 K, m1 = 0.2728	841.7	0.4137

c1ccccc1 [benzene] + CC1=CC(=O)c2ccccc2C1=O
m2 = 0
Conditions	mass density [kg/m3]	viscosity [mPa·s]
303.15 K	868	0.564
308.15 K	862.2	0.5232
313.15 K	857	0.5001
318.15 K	851.6	0.4714
323.15 K	846.3	0.4397
328.15 K	840.7	0.4145
333.15 K	835.4	0.3932

From the NIST ThermoML archive (doi:10.1021/je7006549)
